The values that follow come from US20200071380A1, “COMBINATION THERAPIES COMPRISING SIRP ALPHA-BASED CHIMERIC PROTEINS” (Shattuck Labs, Inc., priority 2018, published 2020).

In assay [1] the target is recombinant hCD47 and recombinant hCD40 (Homo sapiens, UniProt P25942+Q08722). Description: Functional dual ELISA, hCD40 capture and hCD47-His detection. Type of assay: binding. (In an ELISA, binding on a coated surface is turned into a signal by an enzyme label.)
The test system of assay [2] is macrophages co-cultured with Toledo lymphoma cells. Description: qRT-PCR of macrophages sorted from Toledo lymphoma co-cultures. Type of assay: cell-based, human. The conditions noted are these: qRT-PCR on macrophages isolated by FACS from Toledo co-cultures. The procedure: FIG. 8D: Macrophage:Toledo lymphoma co-cultures were harvested 2 hours into phagocytosis assays in the presence of rituximab ([…]), SIRPα-Fc-CD40L ([…]), or the combination of both agents. Macrophages were isolated by CD11b+FACS, RNA was prepared, cDNA synthesized, and gene expression (IFNa1, IFNb1, CD80, and CD86) assessed by qRT-PCR. Fold change was calculated using DDCT and values obtained from the housekeeping gene ACTB, and the corresponding values from untreated samples. […] After 2 hours, co-cultures were isolated from tissue culture vessels and were stained with a fluorescently conjugated CD11b antibody to discriminate macrophages. Cells were then assessed by flow cytometry for the co-localization of fluorescent signal from both cells types. […] After 24-hours type I interferon induced luminescence was assessed using a luminometer. The maximum luminescence (RLU) from each experiment was set to 1, and all other samples were normalized accordingly. […]
RNA was prepared from macrophages isolated using fluorescent activated cell sorting (FACS) from SIRPα-Fc-CD40L/Rituximab treated co-cultures macrophages and Toledo lymphoma cells. The RNA was assessed by gRT-PCR for expression of IFNα1 and IFNβ1, and the macrophage activation markers CD80 and CD86.
For orientation: In qPCR the cycle at which signal appears reflects the starting amount.

The next assay concerns splenic dendritic cells. Description: In vivo splenic dendritic cell activation. Also noted: species or system mice. The settings on record: versus antibody treated groups. The procedure:
For each panel, the samples are (left to right): untreated, sheep RBCs, αCD47 (MIAP301), αSIRPα (P84), mSIRPα-Fc-CD40L, mSIRPα-Fc-CD40L (24 Hrs), and αCD47 (MIAP301) (24 hrs). FIG. 9B is a quantitation of in vivo dendritic cell activation corresponding to FIG. 9A. Shown is the absolute percent of CD4+ and CD8+ dendritic cells; also gated on CD11c and DC1R2. In FIG. 9B, for each panel, the samples are (left to right): untreated, sheep RBCs, αCD47 (MIAP301), αSIRPα (P84), SIRPα-Fc-CD40L (150 μg), SIRPα-Fc-CD40L (300 μg), SIRPα-Fc-CD40L (300 μg) (24 Hrs), and αCD47 (MIAP301) (24 hrs).
An in vivo assay to examine SIRPα/CD47 function in mice was describe in Yi et al., “Splenic Dendritic Cells Survey Red Blood Cells for Missing Self-CD47 to Trigger Adaptive Immune Responses. Immunity. 2015;43(4):764-75) (the contents of which is incorporated by reference in its entirety). This assay detects the activation status of splenic dendritic cells in response to SIRPa/CD47 inhibitors or to infused sheep red blood cells (RBC).
After 6 or 24 hours, mice were euthanized and their spleens excised, dissociated, and assessed by flow cytometry for populations of activated CD4+ dendritic cells (DCs) (FIG. 9A, left panel) or CD8+dendritic cells (FIG. 9A, right panel); both populations of dendritic cells were also positive for MHC II (I-Ab), CD11c, and DC1R2.

Assay [3] has as its system low Her2-expressing breast cancer cell line (MCF7). The assay is described as follows: Macrophage engulfment of MCF7 cells. Type of assay: cell-based, human. The conditions noted are these: HER2LOW cell line MCF7.
The subject of a further assay is CT26 tumors. Description: Syngeneic CT26 colon tumor model versus CD40/CD47 antibodies (Example 11). Type of assay: in vivo, mice. On the procedure:
FIG. 20C: a similar CT26 experiment was initiated as described in FIG. 20A above, however mice were pre-treated on days −1, 1, and 10 with IP injections of 100 μg of either or both CD4/CD8 depleting antibodies. Mice were inoculated with CT26 tumors on day 0 and treated at a later starting date than FIG. 20A with mSIRPα-Fc-CD40L ARC on days 7, 9, and 11. […] In FIG. 20D and FIG. 20E, BALB/C mice were inoculated with WEHI3 tumors (FIG. 20D) or A20 tumors (FIG. 20E) subcutaneously on the rear flank, and then treated via IP injection with anti-CD20 or mSIRPα-Fc-CD40L on days 7, 9, and 11 (WEHI3) or days 10, 12, and 14 (A20); when tumors were established and reached approximately 57-60 mm^3. A cohort of mice were pre-treated with an interferon alpha receptor 1 (IFNAR1) blocking antibody ([…] by IP injection) on days -1, 1, and 10 (WEHI3) or on days −1, 1, and 13 (A20). FIG. 20F to FIG. 20H are graphs showing blockade of CD4, CD8, and IFNAR1. Peripheral blood analysis by flow cytometry of CD4 (FIG. 20F), CD8 (FIG. 20G), and IFNAR1 (FIG. 20H) depletion following depleting antibody treatment corresponding to FIG. 20C to FIG. 20E. Samples were normalized to untreated animals.
Implanted CT26 tumors were allowed to grow to ˜30 mm^3 before treatment was initiated with a fixed regimen of two doses of either a CD40 agonist antibody (clone FGK4.5), a CD47 blocking antibody (clone MIAP301), a combination of the two antibodies, or the murine SIRPα-Fc-CD40L chimeric protein. […] Based on this observation, these experiments were repeated in the setting of antibody-mediated depletion of both CD4+ and CD8+ cells (FIG. 20C).
CD4 and CD8 depletion was verified in the peripheral blood at multiple time points during the experiment (see, FIG. 20F and FIG. 20G).

“SIRPα-Fc-CD40L: Generic name of the SIRPα ECD-Fc-CD40L ECD chimeric protein; human or murine version depending on the test system”: the “simultaneous binding to recombinant hCD47 and recombinant hCD40” value in assay [1] is reported as “simultaneous binding”. Moreover, the “macrophage activation (CD80, CD86) and expression of type I interferon genes (IFNα1, IFNβ1)” value in assay [2] was “induced macrophage activation and the expression of type I interferon genes”. Moreover, the “proportion of overall splenic DCs” value in the assay with splenic dendritic cells is “higher proportion of overall splenic DCs than was observed in the antibody treated groups”. In addition, the phagocytosis entry in assay [3] is “demonstrated monotherapy activity”. The “therapeutic benefit, requirement for CD4+ T cells” value with CT26 tumors (antibody-mediated depletion of CD4+ cells) was “partially required”. Moreover, the “therapeutic benefit in the absence of CD8+ cells” value in the assay on CT26 tumors (antibody-mediated depletion of CD8+ cells) was “completely eliminated the therapeutic benefit”. For the same substance, in the assay with CT26 tumors (tumor and spleen, 13 days following tumor inoculation), the “proportion of AH1-tetramer positive CD8+ T cells” value is “increase in the proportion of AH1-tetramer positive CD8+T cells in both the tumor and spleen”.
